One block for each compound: values may come before it.
Key:
glucan synthase [1] = molecular target: T1, glucan synthase (Candida albicans, UniProt O13428); assay: β(1,3) glucan synthase assay, C. albicans BWP17 membrane preparation (IC50); assay type: biochemical; conditions: in vitro fungal enzyme activity assay, read-out: IC50 (μg/mL) Candida albicans (converted)
T1 construct: glucan synthase sources (2 μL permeabilized PM503 cells, or 3 μL membrane preparations from either PM503, BWP17, or ND158); endogenous in cells; host or cells: C. albicans strain BWP17, 100,000 g membrane fraction
Description: (§1) β(1,3) Glucan Synthase Assay:
(§2) 2. Preparation of Membrane Fraction of Yeast Cells
(§3) The protocol was modified from Douglas et al. (Journal of Bacteriology, 176, 5686-5696, 1994). For the preparation of S. cerevisiae and C. albicans membrane fractions, 1 liter of YPD supplemented with 0.02 mg/mL adenine and 0.08 mg/mL uracil was inoculated with 10 mL starter culture of PM503 (OD600=4) or the C. albicans strain BWP17 (OD600=12) in the same medium and grown at 30° C. until OD600 reached about 1. A. fumigatus (stain ND158) membranes were prepared by first preparing a spore suspension from agar slants by adding 6 mL of sterile saline, 0.1% Tween-20 solution to each slant, and resuspending by pipetting and scraping. The spore suspensions were used to inoculate two 200 mL flasks containing Sabouraud dextrose broth media. Cultures were incubated at 37° C., 250 rpm for ˜8 hrs. All cells, S. cerevisiae, C. albicans or A. fumigatus were harvested by centrifugation at 5,300 g at 4° C. for 40 minutes. After washing with 100 mL of breakage buffer (0.1 M KPi, pH 7.0, 1 mM EDTA, 1 mM DTT), the cell pellet was resuspended in 50 ml ice-cold breakage buffer. The mixture was transferred to a bead-beater chamber packed in ice (BioSpec Products, Bartlesville, Okla.). To each 50 mL sample was added 50 g of acid-washed glass beads ([…], Sigma). Cells were disrupted using 12×20 second pulses with 2 min-cooling intervals. Cell debris was removed by centrifugation at 3,000 g for 20 minutes at 4° C., and the supernatant was collected and centrifuged at 100,000 g for 1 hour at 4° C. to pellet the membrane fraction. The pellet was resuspended in 5 mL of ice-cold breakage buffer containing 25% glycerol, homogenized with a Dounce tissue homogenizer and stored at −80° C. in small aliquots.
(§4) 3. Glucan Synthase Assay and Compound Screening
The assay was performed according to Mo et at (Journal of Biological Chemistry, 269, 31267-31274, 1994) and Taft et al. (The Journal of Antibiotics, 47, 1001-1009, 1994), in a 96-well Optiplate (PerkinElmer). To each well was added 3 μL 10× compound stock (in 100% DMSO), or 3 μL of 30 μg/mL caspofungin in 100% DMSO (as positive control), or 3 μL 100% DMSO (as negative control), followed by the addition of appropriate amount of glucan synthase sources (2 μL permeabilized PM503 cells, or 3 μL membrane preparations from either PM503, BWP17, or ND158). The reaction was initiated by adding 25 μL reaction buffer (0.6 mM UDP-Glucose 0.6 nCi [U-^14C]DUP-Glucose (327 mCi/mmol, Amersham Bioscience), 20 μM GTP-γ-S, 25 mM NaF, 7.5 mg/mL BSA, 8% glycerol in 75 mM Tris-HCl, pH 7.5). The plate was incubated on a shaker for 1.5 hour at room temperature before being quenched with 250 μL 1% TCA (Trichloroacetic Acid). The quenched reaction was mixed by pipetting, and immediately transferred to a 96-well filter plate (Glass fiber B on 0.65 μm hydrophilic durapore membrane, Millipore) pre-wetted with wash buffer (5% TCA, 60 mM NaPPi). The glucan product was retained on the filter membrane by applying vacuum to the plate using a MultiScreen Resist Vacuum Manifold (Millipore). The filter plate was further washed 4 times with 200 μL wash buffer. The plate was dried at 50° C. for 30 minutes. 100 μL of Microscint-0 (PerkinElmer) was added to each well, and plate was counted in a TopCount NXT plate reader (PerkinElmer).
Dose-response curves were plotted from inhibition data generated. IC50 was determined by fitting the CPM versus the Concentration of the test compound plot with the following equation (4-parameter logistic model, ID Business Solutions XLfit 4.2).

glucan synthase [2] = molecular target: T2, glucan synthase (Saccharomyces cerevisiae, UniProt P38631); assay: β(1,3) glucan synthase assay, S. cerevisiae PM503 permeabilized cells or membrane preparation (IC50); assay type: biochemical
T2 construct: glucan synthase sources (2 μL permeabilized PM503 cells, or 3 μL membrane preparations from either PM503, BWP17, or ND158); endogenous in cells; host or cells: S. cerevisiae strain PM503, permeabilized cells or 100,000 g membrane fraction
Description: as §1
1. Preparation of Permeabilized Saccharomyces cerevisiae Cells.
Permeabilization of yeast cells was performed according to Crotti et al. (Analytical Biochemistry, 292, 8-16, 2001) with some modifications. A 10 ml-starter culture of the S. cerevisiae strain in YPD medium (1% yeast extract, 2% bacto-peptone, 2% dextrose) with OD600=3-4 was used to inoculate 1 liter of YPD. The culture was grown at 30° C. until […]. Cells were collected by centrifugation (5,300 g for 15 min at 4° C.) and resuspended in buffer (40 mM EDTA, 100 mM β-mercaptoethanol) at 1 g of cell pellet/3.5 ml buffer. The cell suspension was shaken for 30 min at 30° C., followed by centrifugation at 12,000 g for 10 min at 4° C. The cell pellet was washed with 5 ml 0.8 M sorbitol and resuspended in 6.8 ml of 2.9 mM citric acid, 11.3 mM dibasic sodium phosphate, 1 mM EDTA, 0.8 M sorbitol, with constant shaking at 30)C for 30 min. After centrifugation at 12,000 g for […] at 4° C., the pellet was resuspended in 31.3 ml 50 mM Tris-HCl, pH 7.0, and incubated on ice for 5 min. The mixture was then centrifuged at 12,000 g for 10 min at 4 AC, and the pellet was resuspended in 1 ml of 50 mM Tris-HCl and 33% glycerol, pH 7.5. The permeabilized cell preparation was stored at […] in aliquots.
as §2, §3, §4
The assay was performed according to Mo et at (Journal of Biological Chemistry, 269, 31267-31274, 1994) and Taft et al. (The Journal of Antibiotics, 47, 1001-1009, 1994), in a 96-well Optiplate (PerkinElmer). To each well was added 3 μL 10× compound stock (in 100% DMSO), or 3 μL of 30 μg/mL caspofungin in 100% DMSO (as positive control), or 3 μL 100% DMSO (as negative control), followed by the addition of appropriate amount of glucan synthase sources (2 μL permeabilized PM503 cells, or 3 μL membrane preparations from either PM503, BWP17, or ND158). The reaction was initiated by adding 25 μL reaction buffer (0.6 mM UDP-Glucose 0.6 nCi [U-^14C]DUP-Glucose (327 mCi/mmol, Amersham Bioscience), 20 μM GTP-γ-S, 25 mM NaF, 7.5 mg/mL BSA, 8% glycerol in 75 mM Tris-HCl, pH 7.5). […]

T2 sequence (P06780 1-206): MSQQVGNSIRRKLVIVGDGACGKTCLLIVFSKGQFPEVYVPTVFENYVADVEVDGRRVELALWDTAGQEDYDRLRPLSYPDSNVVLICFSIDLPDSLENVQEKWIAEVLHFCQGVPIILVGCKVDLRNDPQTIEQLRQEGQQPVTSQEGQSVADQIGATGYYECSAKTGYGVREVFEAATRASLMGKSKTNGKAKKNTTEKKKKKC
T2 sequence (P38631 whole entry): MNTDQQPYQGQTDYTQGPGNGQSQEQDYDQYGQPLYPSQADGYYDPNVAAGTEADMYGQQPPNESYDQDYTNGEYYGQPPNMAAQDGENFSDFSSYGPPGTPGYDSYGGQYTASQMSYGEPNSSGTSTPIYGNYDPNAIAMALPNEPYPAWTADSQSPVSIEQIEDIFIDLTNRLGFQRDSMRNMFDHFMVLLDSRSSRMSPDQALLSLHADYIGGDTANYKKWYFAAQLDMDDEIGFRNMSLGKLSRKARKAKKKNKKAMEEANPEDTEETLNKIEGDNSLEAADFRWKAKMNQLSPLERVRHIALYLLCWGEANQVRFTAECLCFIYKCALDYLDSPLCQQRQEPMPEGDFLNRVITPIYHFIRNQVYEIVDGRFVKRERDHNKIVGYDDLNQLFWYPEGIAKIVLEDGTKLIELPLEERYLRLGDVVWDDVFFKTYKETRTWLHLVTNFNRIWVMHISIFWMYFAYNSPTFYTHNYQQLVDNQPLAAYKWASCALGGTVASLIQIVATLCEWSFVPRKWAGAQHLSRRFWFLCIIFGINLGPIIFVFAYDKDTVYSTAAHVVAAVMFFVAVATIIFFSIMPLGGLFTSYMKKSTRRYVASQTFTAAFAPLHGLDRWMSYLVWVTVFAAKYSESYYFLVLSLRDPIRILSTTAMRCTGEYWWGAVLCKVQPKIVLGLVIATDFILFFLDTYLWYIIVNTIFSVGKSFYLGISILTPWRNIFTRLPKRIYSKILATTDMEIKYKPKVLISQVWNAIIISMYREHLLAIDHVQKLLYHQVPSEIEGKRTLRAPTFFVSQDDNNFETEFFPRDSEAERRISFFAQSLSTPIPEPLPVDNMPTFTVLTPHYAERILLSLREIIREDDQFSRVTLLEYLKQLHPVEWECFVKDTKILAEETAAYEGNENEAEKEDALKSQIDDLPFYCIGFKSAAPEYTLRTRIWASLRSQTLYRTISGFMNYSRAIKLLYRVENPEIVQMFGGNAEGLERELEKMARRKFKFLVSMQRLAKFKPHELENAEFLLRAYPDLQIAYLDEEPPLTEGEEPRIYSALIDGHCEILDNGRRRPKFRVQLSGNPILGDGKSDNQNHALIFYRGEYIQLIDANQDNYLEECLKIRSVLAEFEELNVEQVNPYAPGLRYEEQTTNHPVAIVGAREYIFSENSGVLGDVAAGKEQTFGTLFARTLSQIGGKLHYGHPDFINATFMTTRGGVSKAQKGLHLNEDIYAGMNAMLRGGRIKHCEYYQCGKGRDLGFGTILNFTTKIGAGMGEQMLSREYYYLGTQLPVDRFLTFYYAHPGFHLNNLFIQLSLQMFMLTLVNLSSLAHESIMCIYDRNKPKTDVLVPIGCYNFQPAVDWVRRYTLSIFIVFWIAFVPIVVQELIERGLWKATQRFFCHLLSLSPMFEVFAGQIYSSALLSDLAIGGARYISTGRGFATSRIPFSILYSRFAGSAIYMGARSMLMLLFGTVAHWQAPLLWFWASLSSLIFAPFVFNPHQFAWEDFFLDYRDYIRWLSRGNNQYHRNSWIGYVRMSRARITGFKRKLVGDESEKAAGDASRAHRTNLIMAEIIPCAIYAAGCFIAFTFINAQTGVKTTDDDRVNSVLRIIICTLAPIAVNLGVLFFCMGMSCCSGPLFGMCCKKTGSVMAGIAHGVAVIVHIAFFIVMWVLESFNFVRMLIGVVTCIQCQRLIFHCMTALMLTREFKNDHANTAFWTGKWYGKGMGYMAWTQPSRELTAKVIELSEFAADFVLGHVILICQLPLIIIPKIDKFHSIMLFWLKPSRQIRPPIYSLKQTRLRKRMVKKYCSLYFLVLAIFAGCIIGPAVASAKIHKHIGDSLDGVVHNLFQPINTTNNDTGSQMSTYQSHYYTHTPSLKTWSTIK
T1 sequence (O13428 1-1897): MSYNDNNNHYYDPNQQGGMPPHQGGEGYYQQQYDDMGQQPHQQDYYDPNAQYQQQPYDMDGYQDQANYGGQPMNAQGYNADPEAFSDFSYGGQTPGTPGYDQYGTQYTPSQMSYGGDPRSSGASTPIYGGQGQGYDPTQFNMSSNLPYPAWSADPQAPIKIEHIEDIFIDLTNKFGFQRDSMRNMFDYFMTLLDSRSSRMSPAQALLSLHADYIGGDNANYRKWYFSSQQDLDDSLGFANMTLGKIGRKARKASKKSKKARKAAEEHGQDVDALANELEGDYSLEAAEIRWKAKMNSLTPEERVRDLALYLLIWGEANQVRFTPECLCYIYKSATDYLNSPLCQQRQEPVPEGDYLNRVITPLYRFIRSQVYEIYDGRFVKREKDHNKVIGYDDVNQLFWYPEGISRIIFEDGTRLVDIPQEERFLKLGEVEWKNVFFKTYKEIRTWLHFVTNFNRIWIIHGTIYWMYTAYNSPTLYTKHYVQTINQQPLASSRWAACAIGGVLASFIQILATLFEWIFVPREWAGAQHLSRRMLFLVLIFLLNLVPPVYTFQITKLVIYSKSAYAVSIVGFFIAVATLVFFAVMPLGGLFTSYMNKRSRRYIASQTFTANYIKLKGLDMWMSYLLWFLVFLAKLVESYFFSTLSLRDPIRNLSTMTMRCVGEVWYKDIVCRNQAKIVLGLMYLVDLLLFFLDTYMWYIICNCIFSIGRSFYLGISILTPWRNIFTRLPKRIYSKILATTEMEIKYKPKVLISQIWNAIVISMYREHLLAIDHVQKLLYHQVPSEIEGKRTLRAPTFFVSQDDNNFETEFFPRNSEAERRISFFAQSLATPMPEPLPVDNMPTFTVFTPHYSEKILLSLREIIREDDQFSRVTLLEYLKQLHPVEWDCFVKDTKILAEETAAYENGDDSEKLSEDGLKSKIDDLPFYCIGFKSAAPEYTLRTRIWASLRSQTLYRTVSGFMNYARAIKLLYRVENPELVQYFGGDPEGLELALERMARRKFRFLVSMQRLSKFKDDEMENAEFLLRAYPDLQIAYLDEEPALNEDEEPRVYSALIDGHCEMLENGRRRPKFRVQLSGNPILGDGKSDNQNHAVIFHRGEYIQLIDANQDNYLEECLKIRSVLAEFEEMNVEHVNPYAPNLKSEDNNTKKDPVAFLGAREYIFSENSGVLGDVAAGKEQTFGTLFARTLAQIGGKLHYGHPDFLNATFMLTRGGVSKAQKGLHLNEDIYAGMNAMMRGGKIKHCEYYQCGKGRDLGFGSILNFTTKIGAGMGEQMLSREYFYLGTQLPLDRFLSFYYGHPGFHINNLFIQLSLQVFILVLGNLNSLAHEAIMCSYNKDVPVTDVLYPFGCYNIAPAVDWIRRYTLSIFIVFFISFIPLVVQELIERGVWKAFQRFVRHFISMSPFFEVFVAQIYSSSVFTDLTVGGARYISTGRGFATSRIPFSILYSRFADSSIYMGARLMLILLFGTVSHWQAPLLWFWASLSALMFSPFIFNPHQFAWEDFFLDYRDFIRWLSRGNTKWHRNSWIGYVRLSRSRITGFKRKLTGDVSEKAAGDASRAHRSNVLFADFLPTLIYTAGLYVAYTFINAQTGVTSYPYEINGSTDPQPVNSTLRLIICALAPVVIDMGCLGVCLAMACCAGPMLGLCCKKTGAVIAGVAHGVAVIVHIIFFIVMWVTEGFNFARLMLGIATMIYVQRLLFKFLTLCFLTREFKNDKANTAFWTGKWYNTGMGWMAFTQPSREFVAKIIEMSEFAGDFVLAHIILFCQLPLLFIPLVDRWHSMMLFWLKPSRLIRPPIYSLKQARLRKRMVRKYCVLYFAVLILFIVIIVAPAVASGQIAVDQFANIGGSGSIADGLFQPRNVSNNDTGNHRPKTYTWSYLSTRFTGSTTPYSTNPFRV
T1 sequence (O42825 1-195 partner limits assumed): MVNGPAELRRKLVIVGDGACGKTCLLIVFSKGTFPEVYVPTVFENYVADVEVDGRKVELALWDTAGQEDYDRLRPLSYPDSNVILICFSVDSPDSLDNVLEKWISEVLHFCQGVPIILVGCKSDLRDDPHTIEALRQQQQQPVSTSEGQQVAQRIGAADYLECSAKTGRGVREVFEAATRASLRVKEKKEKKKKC

IC50 (glucan synthase [1]): 17700 nM
Compound: N[C@@H](Cc1ccc(Cl)cc1)C(=O)N1CCN(c2cnn(-c3ccccc3)c(=O)c2Sc2ccc(F)cc2)CC1 [1Z]

Compound: CCCCCCCSc1c(N2CCN(S(=O)(=O)Cc3ccccc3)CC2)cnn(-c2ccccc2)c1=O [7Z]
IC50 (glucan synthase [1]): 2030 nM
IC50 (glucan synthase [2]): 629 nM

Compound: CCCCCCSc1c(N2CCN(S(C)(=O)=O)CC2)cnn(-c2cc(F)cc(F)c2)c1=O [11Z]
IC50 (glucan synthase [1]): 12700 nM
IC50 (glucan synthase [2]): 2470 nM

Compound: CC(C)S(=O)(=O)N1CCN(c2cnn(-c3cc(F)cc(F)c3)c(=O)c2Sc2ccccc2)CC1 [19Z]
IC50 (glucan synthase [1]): 3360 nM
IC50 (glucan synthase [2]): 160 nM

Compound: O=c1c(N2CCOCC2)c(N2CCN(S(=O)(=O)Cc3ccccc3)CC2)cnn1Cc1c(F)cccc1Cl [30Z]
IC50 (glucan synthase [1]): 16000 nM
IC50 (glucan synthase [2]): 712 nM

Compound: O=c1c(Nc2ccc(F)cc2)c(N2CCN(S(=O)(=O)Cc3ccccc3)CC2)cnn1-c1cccc(Cl)c1 [47Z]
IC50 (glucan synthase [1]): 415 nM
IC50 (glucan synthase [2]): 45.1 nM

Compound: O=c1c(N2CCCCC2)c(N2CCN(S(=O)(=O)Cc3ccccc3)CC2)cnn1-c1ccc(F)cc1 [61Z]
IC50 (glucan synthase [1]): 2540 nM
IC50 (glucan synthase [2]): 625 nM

Compound: N#Cc1cccc(-c2c(N3CCN(S(=O)(=O)Cc4ccccc4)CC3)cnn(-c3cc(F)cc(F)c3)c2=O)c1 [82Z]
IC50 (glucan synthase [1]): 822 nM
IC50 (glucan synthase [2]): 87.7 nM

Compound: O=c1c(-c2ccc(C3CCCCC3)cc2)c(N2CCN(S(=O)(=O)Cc3ccccc3)CC2)cnn1-c1cc(F)cc(F)c1 [96Z]
IC50 (glucan synthase [1]): 1550 nM
IC50 (glucan synthase [2]): 364 nM

Compound: Cc1ccc(Cc2c(N3CCN(S(=O)(=O)C(C)C)CC3)cnn(-c3cc(F)cc(F)c3)c2=O)cc1 [119Z]
IC50 (glucan synthase [1]): 1610 nM
IC50 (glucan synthase [2]): 125 nM

Compound: CCC1(COc2c(N3CCN(S(=O)(=O)Cc4ccc(N)cc4)CC3)cnn(-c3cc(F)cc(F)c3)c2=O)CC1 [186*]
IC50 (glucan synthase [1]): 214 nM
IC50 (glucan synthase [2]): 89.3 nM

Compound: CC(C)NC(=O)N1CCN(c2cnn(-c3cccc(F)c3)c(=O)c2OC2Cc3ccccc3C2)CC1 [197Z]
IC50 (glucan synthase [1]): 3870 nM
IC50 (glucan synthase [2]): 159 nM

Compound: O=C(NCc1ccccc1)N1CCN(c2cnn(-c3cccc(Cl)c3)c(=O)c2OC2CCCC2)CC1 [204Z]
IC50 (glucan synthase [1]): 68900 nM
IC50 (glucan synthase [2]): 203000 nM

Compound: O=c1c(OC2CCCC2)c(N2CCN(Cc3c(Cl)cccc3Cl)CC2)cnn1-c1cccc(Cl)c1 [208Z]
IC50 (glucan synthase [1]): 2620 nM
IC50 (glucan synthase [2]): 206 nM

Compound: CCOCCOc1c(N2CCN(Cc3c(Cl)cccc3Cl)CC2)cnn(-c2cc(Cl)cc(Cl)c2)c1=O [214Z]
IC50 (glucan synthase [1]): 489 nM
IC50 (glucan synthase [2]): 1310 nM

Compound: CCOCCOc1c(N2CCN(C(=O)CC)CC2)cnn(-c2cccc(C)c2)c1=O [227Z]
IC50 (glucan synthase [1]): 367000 nM
IC50 (glucan synthase [2]): 367000 nM

Compound: CCCCCCCCCC(=O)N1CCN(c2cnn(-c3ccccc3)c(=O)c2OCCCCCCC)CC1 [232Z]
IC50 (glucan synthase [1]): 15600 nM
IC50 (glucan synthase [2]): 3810 nM

Compound: CCOCCOc1c(N2CCN(c3ncc([N+](=O)[O-])s3)CC2)cnn(-c2cccc(C)c2)c1=O [240Z]
IC50 (glucan synthase [1]): 201000 nM
IC50 (glucan synthase [2]): 201000 nM

Compound: CCCCCCCOc1c(N2CCN(S(=O)(=O)CC)CC2)cnn(-c2ccccc2)c1=O [244Z]
IC50 (glucan synthase [1]): 886 nM
IC50 (glucan synthase [2]): 201 nM

Compound: CC1(COc2c(N3CCN(S(=O)(=O)Cc4ccc5ocnc5c4)CC3)cnn(-c3cc(F)cc(F)c3)c2=O)CC1 [270*]
IC50 (glucan synthase [1]): 35 nM
IC50 (glucan synthase [2]): 52.5 nM

Compound: CC1(COc2c(N3CCN(S(=O)(=O)Cc4ccc(I)cc4)CC3)cnn(-c3cccc(Cl)c3)c2=O)CC1 [312*, 2-(3-chlorophenyl)-5-(4-(4-iodobenzylsulfonyl)piperazin-1-yl)-4-((1-methylcyclopropyl)methoxy)pyridazin-3(2H)-one]
IC50 (glucan synthase [1]): 107 nM
IC50 (glucan synthase [2]): 91.6 nM

Compound: CC(C)S(=O)(=O)N1CCN(c2cnn(-c3cccc(F)c3)c(=O)c2OC2CCCCC2)CC1 [402Z]
IC50 (glucan synthase [1]): 794 nM
IC50 (glucan synthase [2]): 153 nM

Compound: O=c1c(OC2CCCC2)c(N2CCN(S(=O)(=O)Cc3cc(Cl)cc(Cl)c3)CC2)cnn1-c1cccc(Cl)c1 [553Z]
IC50 (glucan synthase [1]): 351 nM
IC50 (glucan synthase [2]): 184 nM

Compound: Nc1ccccc1CS(=O)(=O)N1CCN(c2cnn(-c3cc(F)cc(F)c3)c(=O)c2OC2CCCC2)CC1 [738Z]
IC50 (glucan synthase [1]): 128 nM
IC50 (glucan synthase [2]): 73.3 nM

Compound: CC1(COc2c(N3CCN(S(=O)(=O)Cc4ccc(N)cc4)CC3)cnn(-c3cccc(Cl)c3)c2=O)CC1 [745Z]
IC50 (glucan synthase [1]): 110 nM
IC50 (glucan synthase [2]): 73.5 nM

Compound: CC1(COc2c(N3CCN(S(=O)(=O)Cc4cccc(N)c4)CC3)cnn(-c3cccc(Cl)c3)c2=O)CC1 [755Z]
IC50 (glucan synthase [1]): 73.5 nM
IC50 (glucan synthase [2]): 91.9 nM

Compound: CC1(COc2c(N3CCN(S(=O)(=O)Cc4ccc(N)cc4)CC3)cnn(-c3cc(F)cc(F)c3)c2=O)CC1 [767Z]
IC50 (glucan synthase [1]): 238 nM
IC50 (glucan synthase [2]): 91.6 nM

Compound: CC(C)S(=O)(=O)N1CCN(c2cnn(-c3cccc(F)c3)c(=O)c2OCCCCCCC(C)(C)F)CC1 [801Z]
IC50 (glucan synthase [1]): 55.5 nM
IC50 (glucan synthase [2]): 18.5 nM

Compound: O=c1c(OC2CCCC2)c(N2CCN(S(=O)(=O)NCc3ccccc3)CC2)cnn1-c1cccc(Cl)c1 [808Z]
IC50 (glucan synthase [1]): 91.9 nM
IC50 (glucan synthase [2]): 55.1 nM

Compound: Nc1ccc(CS(=O)(=O)N2CCN(c3cnn(-c4cccc(Cl)c4)c(=O)c3OCC3(CF)CC3)CC2)cc1 [809Z]
IC50 (glucan synthase [1]): 196 nM
IC50 (glucan synthase [2]): 71.2 nM

Compound: Nc1ccc(CS(=O)(=O)N2CCN(c3cnn(-c4cc(F)cc(F)c4)c(=O)c3OCC3(CF)CC3)CC2)cc1 [932Z]
IC50 (glucan synthase [1]): 231 nM
IC50 (glucan synthase [2]): 71 nM

Compound: CC(Oc1c(N2CCN(S(=O)(=O)Cc3cccc(N)c3)CC2)cnn(-c2cc(F)cc(F)c2)c1=O)C(C)(C)C (centres unmarked) [971Zbb]
IC50 (glucan synthase [1]): 2850 nM
IC50 (glucan synthase [2]): 588 nM

Compound: CS(=O)(=O)N1CCN(c2cnn(-c3cccc(Cl)c3)c(=O)c2OC2CCc3ccccc3C2)CC1 (centres unmarked) [974Z]
IC50 (glucan synthase [1]): 641 nM
IC50 (glucan synthase [2]): 252 nM
